Results published in patent US20170216360A1, “METHODS AND COMPOSITIONS FOR IMPROVING HOMING OF CELLS INCLUDING MESENCHYMAL STEM CELLS” (SANOFI, priority 2014, published 2017).
Counter-ions that a name gives are not always drawn. Like-named read-outs stand apart in the source and are kept apart here.

Key:
[1] = test system: CD11a surface expression on huMSCs; assay: Medium throughput screen: CD11a surface expression on MSCs, PE-CY5 anti-CD11a antibody, laser-scanning fluorescence microplate cytometer; format: cell-based, human; design: key to Cell surface ligand CD11a (induction of expression): NA = negative activity result; A = positive activity result; conditions: for EC50: read-out: Cell Surface Marker ED 50 (M) Molar Concentration of Compound for CD11a Expression
Experimental: An in vitro screen was performed for compounds that induce surface expression on huMSCs of the marker CD11a (LFA-1). This screen may be considered a medium throughput screen. Certain compounds that induce the increase of this surface marker were then selected for testing in an in vitro firm adhesion assay and/or in vivo systemic administration in an animal model of inflammation. The surface expression screen involved fluorophore-conjugated antibodies to the respective markers. Following pretreatment with the test compounds, samples of cells were incubated with the labeled antibodies for detection of surface marker expression and change relative to a reference level of untreated cells or negative control samples or values. Cells were pretreated with a concentration (3 μM) of each small molecule compound for 24 hours, followed by incubation with a fluorophore-conjugated anti-marker antibody to detect expression on MSC surface. Surface expression levels of marker ligands were then evaluated by laser-scanning fluorescence microplate cytometer. […] Cell viability in response to compounds was also tested to assess whether molecules have toxicity after 24 hours of pretreatment. Testing was performed on two different huMSC sources representing cells from different donors.
Further details of the screening approach are provided as follows. A unique single batch of bone marrow-derived MSC cells was prepared for the entire screening campaign by cell amplification using CellStack flasks and freezing in separate vials at passage P5. […] For each run, vials were thawed and cells directly seeded on 384-well plates at 3,000 cells per well in MSCGM medium. Following an overnight incubation, cells were treated with the indicated concentrations of compounds for 24 hours. Cells were washed in PBS, 3% BSA and incubated for one hour with PE-CY5-conjugated anti-CD11a monoclonal antibody (clone HI111). Expression of CD11a at the cell surface was detected using the Acumen Explorer, a laser-scanning fluorescence microplate cytometer after two PBS washings. HL-60 cells seeded at 10,000 cells per well and treated with 100 nM phorbol 12-myristate 13-acetate (PMA) for 24 h to induce cell adhesion were used as a positive control in each 384-well plate. Positive compounds were counter-screened for their auto-fluorescence by measuring the signal in the absence of antibody.
A single batch of bone marrow-derived MSC was prepared for the entire screening campaign by cell amplification using CellStack flasks and freezing in separate vials at passage P5. […] For each run, vials were thawed and cells directly seeded on 384-well plates at 3,000 cells per well in MSCGM medium. Following an overnight incubation, cells were pretreated with a low (0.1 μM) and high (3 μM) concentration of the compounds for 24 h. 9,000 cpds were tested in 112 assay plates, each 384-well plate contained 320 cpds (from column 5 to 24), one column for Max (Column2, HL60 cells) and one column for Min (Column4, MSC cells). Cells were washed in PBS, 3% BSA and incubated for one hour with PE-CY5-conjugated anti-CD11a monoclonal Ab (BD Biosciences). Expression of CD11a at the cell surface was detected after two PBS washes using the Acumen Explorer equipment, a laser-scanning fluorescence microplate cytometer. HL-60 cells (seeded at 10,000 cells per well and treated with 100 nM phorbol 12-myristate 13-acetate (PMA) for 24 h to induce cell adhesion) were used as a positive control in each 384-well plate. Positive compounds were counter-screened for their auto-fluorescence by measuring the signal in the absence of Ab. Shown in FIG. 4 is the global screening data. Using the Max, Min columns, we have calculated Max/Min ratio generated with CD11a Ab for each assay plate (signal/background ration in green columns was calculated for each of the 112 assay plates). […]

[2] = test system: human mesenchymal stem cells; assay: In vitro functional firm adhesion assay of cells (Table 3, coating not stated); format: cell-based; design: key to Result, in vitro Firm Adhesion: NA = negative activity result; A = positive activity result; conditions: for Firm adhesion, Percent increase: relative to untreated and/or negative control MSCs
Experimental: Cell adhesion experiments were performed using Bioflux1000 (FluxionBio), allowing accurate control over shear flow. A special 48-well plate was used, in which a microfluidic channel (350 μm×70 μm) connects each pair of adjacent wells (termed inlet and outlet wells). The plate was placed under vacuum and the channels were coated from the inlet with recombinant human E-selectin (5 μg/mL) or ICAM-1 (5 μg/mL) and incubated at 37° C. for 1 h. Prior to introducing the cells into the channel, a wash with PBS−/− from the outlet well was performed for 5 min. Compound-pretreated MSCs were introduced into the channel, followed by attachment period of 2 minutes (no flow applied during the attachment period). Attached cells were then subjected to increasing shear flow, ranging from 0.25 dynes/cm^2 for up to 10 dynes/cm^2. Images were acquired using the Montage software and cell adhesion to the coated channels following subjection to shear flow was examined. See also disclosure elsewhere herein.
1. Obtain preferred channel coating (protein/cell monolayer). 2. Prepare cell suspension (same concentrations detailed above for different cell types). 3. Add 50 μl of cell suspension to outlet well. 4. Introduce cells into channel by applying shear force of 2 dynes/cm^2 (cells should be observed within 10-15 sec flowing from outlet to inlet). 5. Once cells are observed in the channel, stop the flow and allow the introduced cells to sit for different time periods ranging from 30 seconds to 5 minutes. 6. Following this settling period, apply shear force starting from 0.5 dynes/cm^2 up to 10 dynes/cm^2 and acquire videos using stream acquisition. 7. Cell quantification is then performed using the Montage software—percentage of cells adhered, rolled or washed away after applying shear flow should be quantified.

Structure (SMILES)	CD11a surface expression on MSCs, result in words ([1]; 24 h pretreatment)	EC50 ([1]; Homo sapiens, pretreatment of huMSCs) [M]	Firm adhesion, Percent increase [2] [%]	CD11a surface expression on MSCs compared to HL-60 cells ([1]; 24 h pretreatment)	Cell surface ligand CD11a (induction of expression) ([1]; pretreatment of huMSCs)	EC50 ([1]; pretreatment of huMSCs, hydrochloride) [M]	Result, in vitro Firm Adhesion ([2]; pretreated huMSCs)	Firm adhesion, Percent increase ([2]; hydrochloride) [%]
CCc1c2c(nc3ccc(OC(=O)N4CCC(N5CCCCC5)CC4)cc13)-c1cc3c(c(=O)n1C2)COC(=O)[C@]3(O)CC [Compound 1927, reference compound]	did not increase	> 3e-05	22					
Cn1cc(C2=C(c3c4n(c5ccccc35)CCC(CN)C4)C(=O)NC2=O)c2ccccc21 (stereo not drawn) [Compound 1929, 3-(8-aminomethyl-6,7,8,9-tetrahydro-pyrido[1,2-a]indol-10-yl)-4-(1-methyl-1H-indol-3-yl)-pyrrole-2,5-dione hydrochloride]	significant increase			two-fold higher	A	8e-07	A	88
